The values below are quoted from earlier work in US20240286999A1, “AZABICYCLO[3.1.0]HEXANE COMPOUND” (OTSUKA PHARMACEUTICAL CO., LTD., priority 2021, published 2024).

Each structure is given as a SMILES string.

Series [1] has as its system serotonin reuptake (5-HT). The note with it: relative to NE reuptake.
In series [2] the test system is norepinephrine reuptake (NE). The note with it: ranking among NE, DA and 5-HT reuptake.
For the next series, the system named is dopamine reuptake (DA). As to conditions: relative to NE reuptake.

Regarding `c1ccc2cc([C@]34CNC[C@H]3C4)ccc2c1` [(1R,5S)-1-(naphthalen-2-yl)-3-azabicyclo[3.1.0]hexane], the “effectiveness against serotonin reuptake (5-HT) relative to norepinephrine reuptake” value in series [1] is “one-fourteenth as effective”. Also, the “effectiveness against norepinephrine reuptake (NE)” value in series [2] is recorded as “most effective”. In addition, the “effectiveness against dopamine reuptake (DA) relative to norepinephrine reuptake” value with dopamine reuptake (DA) is listed as “one-sixth as effective”.
